Reference: publication PMC4880925 (Scientific Reports, 2016)

Assays:
CYP144A1 [1] = biological target: T1, CYP144A1 (Mycobacterium tuberculosis, UniProt P9WPL1); assay: […]; supported by EPR and DSC (Tm […] to […] °C); type: binding
T1 construct: gene cyp144
Target sequence in this assay (P9WPL1 31-434): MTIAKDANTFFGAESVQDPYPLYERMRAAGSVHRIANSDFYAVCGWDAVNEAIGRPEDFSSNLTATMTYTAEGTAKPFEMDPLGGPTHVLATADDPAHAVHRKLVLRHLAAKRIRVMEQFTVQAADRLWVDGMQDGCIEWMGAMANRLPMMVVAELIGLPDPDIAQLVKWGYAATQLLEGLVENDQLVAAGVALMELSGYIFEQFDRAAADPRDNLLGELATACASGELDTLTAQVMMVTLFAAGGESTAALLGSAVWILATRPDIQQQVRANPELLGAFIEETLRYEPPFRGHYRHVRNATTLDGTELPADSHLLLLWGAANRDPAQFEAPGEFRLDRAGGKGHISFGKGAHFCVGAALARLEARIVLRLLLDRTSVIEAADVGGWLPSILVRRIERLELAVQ

CYP144A1 [2] = biological target: T1, CYP144A1; type: binding
Target sequence in this assay (P9WPL1 whole entry): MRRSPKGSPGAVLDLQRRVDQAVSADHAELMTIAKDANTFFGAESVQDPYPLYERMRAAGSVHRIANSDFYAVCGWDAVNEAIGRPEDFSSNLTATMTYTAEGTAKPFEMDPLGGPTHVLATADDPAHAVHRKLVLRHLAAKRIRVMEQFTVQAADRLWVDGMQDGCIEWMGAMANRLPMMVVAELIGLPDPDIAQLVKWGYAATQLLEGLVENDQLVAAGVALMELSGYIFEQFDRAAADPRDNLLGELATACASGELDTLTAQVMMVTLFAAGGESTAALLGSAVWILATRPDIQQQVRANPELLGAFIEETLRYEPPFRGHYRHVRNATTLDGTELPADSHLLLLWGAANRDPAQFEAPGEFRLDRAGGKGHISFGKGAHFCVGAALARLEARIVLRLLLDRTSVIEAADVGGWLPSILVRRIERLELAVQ

SMILES | Kd (CYP144A1 [1]) [nM] | differential scanning calorimetry, Tm raised from 47 to 50 °C (CYP144A1 [2]) [°C]
Clc1ccc(COC(Cn2ccnc2)c2ccc(Cl)cc2Cl)cc1 (centres unmarked) [econazole] | 720 ± 180 | –
Clc1ccccc1C(c1ccccc1)(c1ccccc1)n1ccnc1 [clotrimazole] | – | 50
